# Assay results: patent publication US9301910B2, “Fragrant formulations, methods of manufacture thereof and articles comprising the same” (GFBiochemicals Limited, priority 2010, dated 2016)
# What was measured:
# Format in all cases: physicochemical
# [1] = Compatibility between waxes and alkyl ketal esters (melt, cool to room temperature)
# Experimental: Compatibility between various waxes and the alkyl ketal esters was first determined as detailed below. Table 10 below details the fragrant formulations for 10 different candles (Examples 116-125) that contain the fragrant composition.
# Beeswax and Et-LGK were weighed into a vessel in a 50/50 weight ratio and heated to 80° C. to form a uniform molten mixture.
# Gulf Wax brand of household paraffin wax for canning and candlemaking (distributed by Royal Oak Enterprises) was used in these experiments.
# [2] = Miscibility of alkyl ketal esters with water; conditions: for miscible in water to the extent of: parts of ester, balance to 100 parts is water (1 per 99, 2.5 in 97.5, 5 per 95); for miscibility with water: miscibility assessed at 25° C unless stated otherwise
# Experimental: (§1) Unless stated otherwise, miscibility is assessed at 25° C.
# [3] = Miscibility of alkyl ketal esters with organic compounds; conditions: parts of the organic compound in 80 parts of the alkyl ketal ester; organic compounds as listed in the block
# Experimental: as §1
# [4] = Dissolution of vanillin in alkyl ketal esters
# Experimental: […] […] Dissolution is much quicker at 80° C.
# Vanillin was dissolved at 25% solids by weight in Et-LPK with slight heating (80° C.).
# [5] = Compatibility between waxes and alkyl ketal esters (melt, cool to room temperature); conditions: 25/75 weight ratio of Et-LGK to beeswax, 80° C, cooled
# [6] = NatureWax C-3 / ester 90/10 weight ratio, 80° C, cooled
# [7] = beeswax / ester 50/50 weight ratio, melted at 80° C, cooled to room temperature
# [8] = candelilla wax / ester 50/50 weight ratio, 120° C, cooled
# [9] = carnauba wax / ester 50/50 weight ratio, 120° C, cooled
# [10] = paraffin wax / ester 75/25 weight ratio, 80° C, cooled to room temperature
# [11] = NatureWax C-1 / ester 90/10 weight ratio, 80° C, cooled
# [12] = NatureWax P-1 / ester 75/25 weight ratio, 80° C, cooled
# [13] = paraffin wax / ester 50/50 weight ratio, 80° C, cooled to room temperature
# [14] = stearic acid / ester 50/50 weight ratio, 80° C, cooled to room temperature
# [15] = vanillin at 10% solids by weight in the ester, room temperature
compound,measurement,setting,value
"CCCCOC(=O)CCC1(C)OCC(CO)O1 (stereo not shown) [Bu-LGK, glycerol ketal of butyl levulinate]",layers upon cooling,"[1]; NatureWax C-1 / ester 50/50 weight ratio, 80° C, cooled",single homogenous wax layer
same,layers upon cooling,[1]; [6],single homogenous wax layer
same,layers upon cooling,"[1]; NatureWax P-1 / ester 50/50 weight ratio, 80° C, cooled",single homogenous wax layer
same,layers upon cooling,[1]; [7],single homogenous wax layer
same,layers upon cooling,[1]; [8],single homogenous wax layer
same,layers upon cooling,[1]; [9],single homogenous wax layer
same,layers upon cooling,[1]; [10],Two layers formed
same,miscible in water to the extent of,[2],1 parts
same,dissolves or is miscible with organic compounds to the extent of,[3],at least 20 parts
same,dissolution of vanillin,"[4]; vanillin at 25% solids by weight in the ester, room temperature","initially appeared to be insoluble but over the course of five days, the vanillin dissolved, resulting in a clear uniform mixture"
CCOC(=O)CC1(C)OCC(CO)O1 (stereo not shown) [Et-AcAcGK],miscibility with water,[2],miscible with water in all proportions
"CCOC(=O)CCC1(C)OCC(CO)O1 (stereo not shown) [Et-LGK, glycerol ketal of ethyl levulinate]",layers upon cooling,[5],single homogenous wax layer
same,layers upon cooling,"[1]; 25/75 Et-LGK to stearic acid by weight, 80° C, cooled",single homogenous wax layer
same,layers upon cooling,[1]; [11],single homogenous wax layer
same,layers upon cooling,[1]; [6],single homogenous soft wax layer
same,layers upon cooling,[1]; [12],single homogenous wax layer
same,layers upon cooling,[1]; [7],Two layers formed
same,layers upon cooling,"[1]; candelilla wax / ester 75/25 weight ratio, 120° C, cooled to room temperature",Two layers formed
same,layers upon cooling,"[1]; candelilla wax / ester 90/10 weight ratio, 120° C, cooled",single homogenous wax layer
same,layers upon cooling,[1]; [9],Two layers formed
same,layers upon cooling,"[1]; carnauba wax / ester 75/25 weight ratio, 120° C, cooled",single homogenous wax layer
same,layers upon cooling,[1]; [13],Two layers formed
same,layers upon cooling,"[1]; paraffin wax / ester 90/10 weight ratio, 80° C, cooled to room temperature",single homogenous wax layer
same,layers upon cooling,[1]; [14],Two layers formed
same,miscibility with water,[2],miscible in water in all proportions
same,dissolves or is miscible with organic compounds to the extent of,[3],at least 20 parts
same,dissolution of vanillin,[4]; [15],clear uniform mixture
"CCOC(=O)CCC1(C)OCC(C)O1 (stereo not shown) [Et-LPK, propylene glycol ketal of ethyl levulinate]",layers upon cooling,[1]; [11],single homogenous wax layer
same,layers upon cooling,[1]; [6],single homogenous wax layer
same,layers upon cooling,[1]; [12],single homogenous wax layer
same,layers upon cooling,[1]; [7],single homogenous wax layer
same,layers upon cooling,[1]; [8],single homogenous wax layer
same,layers upon cooling,[1]; [9],single homogenous wax layer
same,layers upon cooling,[1]; [13],single homogenous wax layer
same,layers upon cooling,[1]; [10],single homogenous wax layer
same,layers upon cooling,[1]; [14],single homogenous wax layer
same,miscible in water to the extent of,[2],2.5 parts
same,dissolves or is miscible with organic compounds to the extent of,[3],at least 20 parts
same,dissolution of vanillin,[4]; [15],clear uniform mixture
same,dissolution of vanillin,"[4]; vanillin at 25% solids by weight in the ester, slight heating (80° C)",clear uniform solutions hot and stayed as a clear uniform mixture at room temperature initially
same,precipitation of vanillin on standing,"[4]; vanillin at 25% solids by weight, dissolved at 80° C, then room temperature","Within an hour, signs of precipitation at room temperature appeared"
COC(=O)CC1(C)OCC(CO)O1 (stereo not shown) [Me-AcAcGK],miscibility with water,[2],miscible with water in all proportions
CCOC(=O)CCC1(C)OCCO1 [ethyl-LEK],miscible in water to the extent of,[2],5 parts
COC(=O)CCC1(C)OCC(CO)O1 (stereo not shown) [methyl-LGK],miscibility with water,[2],miscible with water in all proportions
CCCCOC(=O)CCC1(C)OCC(C)O1 (stereo not shown) [n-butyl-LPK],dissolves or is miscible with organic compounds to the extent of,[3],at least 20 parts
CCCOC(=O)CCC1(C)OCC(CO)O1 (stereo not shown) [n-propyl-LGK],miscible in water to the extent of,[2],1 parts
